In article PMC2880850 (Journal of medicinal chemistry, 2010):
Entries after “also recorded” stand apart in the source; their conditions may differ.

What was measured:
GST–Bcl-XL ΔTM protein = GST–Bcl-XL ΔTM protein (Homo sapiens, UniProt Q07817); conditions: read-out: IC50 binding to Bcl-XL in FPA assays; cited from earlier work
[1] = tested on: MDA-MB-231 breast cancer cells; conditions: read-out: EC50 in killing MDA-MB-231 breast cancer cells; cited from earlier work
Bcl-XL = Bcl-XL (Homo sapiens, UniProt Q07817); experiment: Isothermal Titration Calorimetry assay; assay type: binding; conditions: Kd ratio
[2] = tested on: Bax/Bak double knockout MEF cells (MEF/DKO); experiment: FITC-Annexin V/PI assay, Bax/Bak double knockout MEF; assay type: cell-based, mouse; conditions: for toxicity in MEF/DKO cells: 30 μM, FITC-Annexin V/PI
[3] = tested on: B6 transgenic mice overexpressing human Bcl-2 in B-cells; experiment: Bcl-2 transgenic mice, spleen weight; assay type: in vivo, mouse; conditions: single i.p. injection at 42 mg/kg, 24 hours
[4] = Chemical stability at different temperatures; assay type: physicochemical
BP3 cell line = experiment: Apoptosis assay, Annexin V-FITC and propidium iodide, BP3; assay type: cell-based, human

Chain of Bcl-XL (Q07817 whole entry): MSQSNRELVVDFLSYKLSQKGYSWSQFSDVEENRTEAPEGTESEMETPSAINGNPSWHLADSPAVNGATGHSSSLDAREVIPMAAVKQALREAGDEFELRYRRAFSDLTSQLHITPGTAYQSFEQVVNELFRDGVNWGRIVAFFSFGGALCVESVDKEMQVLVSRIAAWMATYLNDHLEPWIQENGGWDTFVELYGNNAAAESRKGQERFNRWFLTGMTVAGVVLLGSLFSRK
Chain of GST–Bcl-XL ΔTM protein (Q07817 1-211 limits assumed, stated change not applied): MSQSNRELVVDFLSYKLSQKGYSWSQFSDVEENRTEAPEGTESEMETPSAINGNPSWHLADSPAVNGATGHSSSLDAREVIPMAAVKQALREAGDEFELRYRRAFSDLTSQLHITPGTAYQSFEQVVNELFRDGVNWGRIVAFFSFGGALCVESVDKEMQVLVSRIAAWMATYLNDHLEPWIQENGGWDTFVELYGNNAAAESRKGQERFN

What does the source list for `Cc1cc2c(C(C)C)c(O)c(O)c(C=O)c2c(O)c1-c1c(C)cc2c(C(C)C)c(O)c(O)c(C=O)c2c1O` (single isomer, unassigned) [(−) 1, Gossypol]?
IC50 (GST–Bcl-XL ΔTM protein): 480 nM; EC50 [1]: ~2000 nM

What does the source list for `Cc1cc2c(C(=O)NC[C@H](C)c3ccccc3)c(O)c(O)cc2c(O)c1-c1c(C)cc2c(C(=O)NC[C@H](C)c3ccccc3)c(O)c(O)cc2c1O` (single isomer, unassigned) [Compound 11]?
times more potent than other isomers 12–14 in ITC assay (Bcl-XL): 4–20 times; cytotoxicity against bax−/−bak−/− cells [2]: less cytotoxicity against bax^−/−bak^−/− cells compared to compound 4; also recorded: little cytotoxicity; toxicity in MEF/DKO cells [2]: slight toxicity; spleen weight reduction [3]: more than 30%; chemical stability [4]: better chemical stability compared to other compounds (12–14); inhibition of tumor growth (M2182 tumor xenografts; 5 mg/kg i.p. every 2 days, nine injections, both flanks): near complete inhibition of tumor growth; tolerability of treatment (M2182 tumor xenografts; mouse, in vivo, ip): no apparent signs of toxicity

With `Cc1cc2c(C(=O)NC[C@@H](C)c3ccccc3)c(O)c(O)cc2c(O)c1-c1c(C)cc2c(C(=O)NC[C@@H](C)c3ccccc3)c(O)c(O)cc2c1O` [Compound 14, (R)-1,1′,6,6′,7,7′-hexahydroxy-3,3′-dimethyl-N^5-((S)-2-phenylpropyl)-N^5′-((S)-2-phenylpropyl)-2,2′-binaphthyl-5,5′-dicarboxamide] as the compound, how does the “toxicity in MEF/DKO cells” value [2] read?
The value was “almost equally effective in killing both MEF/WT and MEF/DKO”.

Which spleen weight reduction [3] does the source give for `Cc1cc2c(C(=O)NC[C@H](C)c3ccccc3)c(O)c(O)cc2c(O)c1-c1c(C)cc2c(C(=O)NC[C@H](C)c3ccccc3)c(O)c(O)cc2c1O` (single isomer, unassigned) [Compound 12] here?
The spleen weight reduction was “weak in vivo activity”.

For `CN(C)CC[C@H](CSc1ccccc1)Nc1ccc(S(=O)(=O)NC(=O)c2ccc(N3CCN(Cc4ccccc4-c4ccc(Cl)cc4)CC3)cc2)cc1[N+](=O)[O-]` [ABT-737], which “apoptosis induction / cytotoxic activity against BP3 cell line” value (BP3 cell line) is on record?
Its value is “no cytotoxic activity”.

With `Cc1cc2c(C(C)C)c(O)c(O)c(C=O)c2c(O)c1-c1c(C)cc2c(C(C)C)c(O)c(O)c(C=O)c2c1O` (single isomer, unassigned) [(+) 1, Gossypol] as the compound, how does the EC50 [1] read?
The EC50 was ~10000 nM.
